From patent publication US10781211B2, “Spirocycle compounds and methods of making and using same” (Lundbeck La Jolla Research Center, Inc., priority 2016, dated 2020)

Assays:
[1] = target: T1, FAAH (Mus musculus (Mouse), UniProt O08914); assay: In vitro competitive activity-based protein profiling (mouse brain membrane proteome), FAAH band; type: biochemical; settings: for inhibition at 1 µM: read-out: FAAH % Inh 1 μM (mouse)
Protocol: (§1) In Vitro Competitive Activity-Based Protein Profiling.
(§2) Proteomes (mouse brain membrane fraction or cell lysates) (50 μL, 1.0 mg/mL total protein concentration) were preincubated with varying concentrations of inhibitors at 37° C. After 30 min, FP-Rh (1.0 μL, 50 μM in DMSO) was added and the mixture was incubated for another 30 min at 37° C. Reactions were quenched with SDS loading buffer (50 μL-4X) and run on SDS-PAGE. Following gel imaging, serine hydrolase activity was determined by measuring fluorescent intensity of gel bands corresponding to MAGL, ABHD6 and FAAH using ImageJ 1.43 u software.

[2] = target: T2, MAGL (Mus musculus (Mouse), UniProt O35678); assay: In vitro competitive activity-based protein profiling (mouse brain membrane proteome), MAGL band; type: biochemical; settings: for inhibition at 1 µM: read-out: MAGL % Inh 1 μM (mouse)
Protocol: as §1
Proteomes (mouse brain membrane fraction or cell lysates) (50 μL, 1.0 mg/mL total protein concentration) were preincubated with varying concentrations of inhibitors at 37° C. After 30 min, FP-Rh (1.0 μL, 50 μM in DMSO) was added and the mixture was incubated for another 30 min at 37° C. Reactions were quenched with SDS loading buffer (50 μL-4X) and run on SDS-PAGE.

[3] = target: T1, FAAH; assay: Mouse brain proteomes from inhibitor treated mice (oral gavage, sacrifice 4 h after administration, ABPP analysis), FAAH; type: in vivo; settings: 5 mg/kg oral gavage
In short: (§3)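 Read-out is % inhibition at 5 mg/kg in brain proteomes profiled by activity-based protein profiling. Inhibitors were dosed orally to wild-type C57Bl/6J mice, with sacrifice at 4 h.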

[4] = target: T2, MAGL; assay: Mouse brain proteomes from inhibitor treated mice (oral gavage, sacrifice 4 h after administration, ABPP analysis); type: in vivo; settings: 5 mg/kg oral gavage
In short: as §3

[5] = target: T3, ABHD6 (Mus musculus (Mouse), UniProt Q8R2Y0); assay: Mouse brain proteomes from inhibitor treated mice (oral gavage, sacrifice 4 h after administration, ABPP analysis), ABHD6; type: in vivo; settings: 5 mg/kg oral gavage
In short: as §3

[6] = target: T3, ABHD6; assay: In vitro competitive activity-based protein profiling (mouse brain membrane proteome), ABHD6 band; type: biochemical; settings: read-out: ABHD6 % Inh 1 μM (mouse)
Protocol: as §1, §2

[7] = target: MAGL (Homo sapiens (Human), UniProt Q99685); assay: In vitro competitive activity-based protein profiling (human prefrontal cortex or cell membrane fractions; hMAGL expressed in HEK293T cells); type: biochemical; settings: human proteome
Protocol: In Vitro Competitive Activity-Based Protein Profiling (Human).
Proteomes (human prefrontal cortex or cell membrane fractions) (50 μL, 1.0-2.0 mg/mL total protein concentration) were preincubated with varying concentrations of inhibitors at 37° C. After 30 min, FP-Rh or JW912 (1.0 μL, 50 μM in DMSO) was added and the mixture was incubated for another 30 min at room temperature. Reactions were quenched with SDS loading buffer (15 μL-4X) and run on SDS-PAGE.
Recombinant Expression of Human MAGL in HEK293T Cells.
Cell lysates were diluted with mock proteomes for use in competitive ABPP experiments.

T3 sequence (Q8R2Y0 whole entry): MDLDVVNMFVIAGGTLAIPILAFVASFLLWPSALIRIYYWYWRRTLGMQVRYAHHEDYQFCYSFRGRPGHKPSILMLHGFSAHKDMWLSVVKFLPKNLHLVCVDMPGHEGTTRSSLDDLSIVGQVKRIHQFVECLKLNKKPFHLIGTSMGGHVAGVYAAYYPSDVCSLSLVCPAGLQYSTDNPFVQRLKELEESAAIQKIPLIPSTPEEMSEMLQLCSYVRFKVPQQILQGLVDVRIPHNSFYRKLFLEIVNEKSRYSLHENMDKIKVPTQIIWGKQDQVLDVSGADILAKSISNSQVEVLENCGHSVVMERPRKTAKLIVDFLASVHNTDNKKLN
T1 sequence (O08914 whole entry): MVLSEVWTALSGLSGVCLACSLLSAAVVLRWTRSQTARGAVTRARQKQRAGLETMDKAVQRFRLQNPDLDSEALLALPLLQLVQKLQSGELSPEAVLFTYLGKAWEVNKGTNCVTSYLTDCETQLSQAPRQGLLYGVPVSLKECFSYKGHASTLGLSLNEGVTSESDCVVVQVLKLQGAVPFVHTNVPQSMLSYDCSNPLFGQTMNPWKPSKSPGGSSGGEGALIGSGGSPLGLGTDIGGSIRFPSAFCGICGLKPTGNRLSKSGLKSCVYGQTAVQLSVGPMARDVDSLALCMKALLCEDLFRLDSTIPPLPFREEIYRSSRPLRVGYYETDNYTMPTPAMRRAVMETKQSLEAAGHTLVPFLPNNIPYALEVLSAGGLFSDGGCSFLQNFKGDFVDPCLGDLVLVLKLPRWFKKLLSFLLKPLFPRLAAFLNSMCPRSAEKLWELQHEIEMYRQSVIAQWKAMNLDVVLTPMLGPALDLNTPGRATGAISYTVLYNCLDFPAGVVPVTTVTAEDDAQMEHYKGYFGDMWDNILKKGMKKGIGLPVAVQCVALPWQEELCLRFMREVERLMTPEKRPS
T2 sequence (O35678 whole entry): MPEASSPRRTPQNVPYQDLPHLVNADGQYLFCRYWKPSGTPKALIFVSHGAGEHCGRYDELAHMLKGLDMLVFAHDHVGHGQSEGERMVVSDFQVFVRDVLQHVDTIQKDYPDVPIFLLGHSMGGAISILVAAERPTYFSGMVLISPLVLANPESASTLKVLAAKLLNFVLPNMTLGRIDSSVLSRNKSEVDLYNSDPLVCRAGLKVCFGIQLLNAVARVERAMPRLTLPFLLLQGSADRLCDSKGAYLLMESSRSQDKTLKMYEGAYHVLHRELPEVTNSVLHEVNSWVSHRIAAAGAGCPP
Sequence of MAGL (Homo sapiens (Human), UniProt Q99685) (Q99685 whole entry): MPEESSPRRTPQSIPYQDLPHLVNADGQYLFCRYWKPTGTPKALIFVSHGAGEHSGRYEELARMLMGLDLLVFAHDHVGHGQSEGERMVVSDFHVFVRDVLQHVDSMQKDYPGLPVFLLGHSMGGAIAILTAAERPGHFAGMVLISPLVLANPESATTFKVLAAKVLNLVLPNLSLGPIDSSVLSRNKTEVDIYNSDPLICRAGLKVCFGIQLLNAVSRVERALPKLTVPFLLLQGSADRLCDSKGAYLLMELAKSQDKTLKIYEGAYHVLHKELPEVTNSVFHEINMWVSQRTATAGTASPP

IC50 [1] | IC50 [2] | FAAH % Inh 5 mg/kg (mouse) [3] | MAGL % Inh 5 mg/kg (mouse) [4] | ABHD6 % Inh 5 mg/kg (mouse) [5] | inhibition at 1 µM [6] | IC50 [7] | inhibition at 1 µM [1] | inhibition at 1 µM [2] | SMILES
> 1 µM | < 0.1 µM | # (# is < 25%) | ### (### is ≥ 75%) | ### (### is ≥ 75%) |  |  |  |  | CC(=O)N1CCCc2cccc(CN3CCC4(CCN(C(=O)OC(C(F)(F)F)C(F)(F)F)CC4)C3)c21 [Example 70, 1,1,1,3,3,3-Hexafluoropropan-2-yl 2-((1-acetyl-1,2,3,4-tetrahydroquinolin-8-yl)methyl)-2,8-diazaspiro[4.5]decane-8-carboxylate]
 |  | # (# is < 25%) | ### (### is ≥ 75%) | # (# is < 25%) | < 25% | < 0.1 µM | < 25% | > 75% | O=C(O)C1CCCCN1c1cc(CN2CCCC23CCN(C(=O)OC(C(F)(F)F)C(F)(F)F)CC3)cc(C(F)(F)F)c1 (stereo not drawn) [Example 226]
 |  |  |  |  | < 25% | < 0.1 µM | < 25% | > 75% | CC1(C(=O)O)CCN(c2cc(CN3CCCC34CCN(C(=O)OC(C(F)(F)F)C(F)(F)F)CC4)cc(C(F)(F)F)c2)C1 (stereo not drawn) [Example 231]
 |  |  |  |  | < 25% |  | < 25% |  | O=C(O)C1CCN(c2cc(F)ccc2CN2CCCC23CCN(C(=O)OC(C(F)(F)F)C(F)(F)F)CC3)CC1 [Example 235]
 |  | # (# is < 25%) | ### (### is ≥ 75%) | # (# is < 25%) |  |  |  |  | O=C(O)C1CCN(c2cc(S(F)(F)(F)(F)F)ccc2CN2CCCC23CCN(C(=O)OC(C(F)(F)F)C(F)(F)F)CC3)CC1 [Example 240]
 |  | # (# is < 25%) | ### (### is ≥ 75%) | # (# is < 25%) |  |  |  |  | O=C(O)C1CCN(Cc2cc(CN3CCCC34CCN(C(=O)OC(C(F)(F)F)C(F)(F)F)CC4)cc(C(F)(F)F)c2)CC1 [Example 244]
 |  | # (# is < 25%) | ### (### is ≥ 75%) | # (# is < 25%) |  |  |  |  | O=C(O)C1CCN(c2cc(OC(F)(F)F)ccc2CN2CCCC23CCN(C(=O)OC(C(F)(F)F)C(F)(F)F)CC3)CC1 [Example 248]
 |  | # (# is < 25%) | # (# is < 25%) | # (# is < 25%) |  |  |  |  | CC1(C(=O)O)CN(c2cc(C(F)(F)F)ccc2CN2CCC3(CCN(C(=O)OC(C(F)(F)F)C(F)(F)F)CC3)C2)CCO1 (stereo not drawn) [Example 256]
 |  | # (# is < 25%) | # (# is < 25%) | # (# is < 25%) |  |  |  |  | CS(=O)(=O)C1CCN(c2cc(C(F)(F)F)ccc2CN2CCCC23CCN(C(=O)OC(C(F)(F)F)C(F)(F)F)CC3)CC1 [Example 267]
 |  | # (# is < 25%) | ### (### is ≥ 75%) | # (# is < 25%) |  |  |  |  | O=C(O)C1CCN(Cc2cc(Cl)cc(CN3CCCC34CCN(C(=O)OC(C(F)(F)F)C(F)(F)F)CC4)c2)C1 (stereo not drawn) [Example 272]
 |  | # (# is < 25%) | ### (### is ≥ 75%) | # (# is < 25%) |  |  |  |  | O=C(O)[C@H]1CCCCN1c1cc(CN2CCCC23CCN(C(=O)OC(C(F)(F)F)C(F)(F)F)CC3)cc(C(F)(F)F)c1 [Example 274]
 |  | # (# is < 25%) | # (# is < 25%) | # (# is < 25%) |  |  |  |  | O=C(O)C1CCN(C(=O)c2cc(C(F)(F)F)ccc2CN2CCCC23CCN(C(=O)OC(C(F)(F)F)C(F)(F)F)CC3)CC1 [Example 281]
